Source: US8916499B2, “Herbicidal compositions comprising 4-amino-3-chloro-5-fluoro-6-(4-chloro-2-fluoro-3-methoxyphenyl) pyridine-2-carboxylic acid or a derivative thereof and a protoporphyrinogen oxidase inhibitor” (Dow AgroSciences LLC, priority 2012, dated 2014)

Columns and labels:
[1] = system: CYPRO; test: In-water applied weed control, transplanted paddy rice, greenhouse (Example II); format: in vivo, Cyperus rotundus L.
[2] = system: ECHCO; test: Postemergence foliar-applied weed control, direct seeded rice, greenhouse (Example I); format: in vivo, Echinochloa colona (L.) Link
[3] = system: LEFCH; test: In-water applied weed control, transplanted paddy rice, greenhouse (Example II); format: in vivo, Leptochloa chinensis (L.) Nees
[4] = system: ISCRU; test: Postemergence foliar-applied weed control, direct seeded rice, greenhouse (Example I); format: in vivo, Ischaemum rugosum Salisb.; settings: g ae/ha Compound A Benzyl Ester+g ai/ha saflufenacil: r49 8+0, r50 16+0, r51 0+10, r52 0+20, r53 8+10, r54 16+10, r55 8+20, r56 16+20
[5] = system: ECHCG; test: In-water applied weed control, transplanted paddy rice, greenhouse (Example II); format: in vivo, Echinochloa crus-galli (L.) P. Beauv.
[6] = system: ECHOR; test: as above; format: in vivo, Echinochloa oryzoides (Ard.) Fritsch
[7] = system: LEFCH; test: Postemergence foliar-applied weed control, direct seeded rice, greenhouse (Example I); format: in vivo, Leptochloa chinensis (L.) Nees
[8] = system: CYPIR; test: as above; format: in vivo, Cyperus iria L.; settings: g ae/ha Compound A Acid+g ai/ha saflufenacil: r24 4.38+0, r25 0+5, r26 0+10, r27 0+20, r28 4.38+5, r29 4.38+10, r30 4.38+20
[9] = system: IPOHE; test: as above; format: in vivo, Ipomoea hederacea Jacq.
[10] = system: SCPJU; test: In-water applied weed control, transplanted paddy rice, greenhouse (Example II); format: in vivo, Schoenoplectus juncoides (Roxb.) Palla
[11] = system: BRAPP; test: Postemergence foliar-applied weed control, direct seeded rice, greenhouse (Example I); format: in vivo, Brachiaria platyphylla (Griseb.) Nash; settings: g ae/ha Compound A Acid+g ai/ha pyraclonil: r11 4.38+0, r12 0+33.75, r13 0+67.5, r14 0+135, r15 4.38+33.75, r16 4.38+67.5, r17 4.38+135
[12] = system: FIMMI; test: In-water applied weed control, transplanted paddy rice, greenhouse (Example II); format: in vivo, Fimbristylis miliacea (L.) Vahl; settings: 8.75 g ae/ha alone

Compound: CC(C)N(C)S(=O)(=O)NC(=O)c1cc(-n2c(=O)cc(C(F)(F)F)n(C)c2=O)c(F)cc1Cl [Saflufenacil, 2-chloro-5-[3,6-dihydro-3-methyl-2,6-dioxo-4-(trifluoromethyl)-1(2H)-pyrimidinyl]-4-fluoro-N-[[methyl(1-methylethyl)amino]sulfonyl]benzamide, reference compound]
- Visual Weed Control (%) - 20 DAA CYPRO Obs ([1]; 10 g ai/ha alone): 0%
- Visual Weed Control (%) - 20 DAA ECHCO Obs ([2]; g ae/ha Compound A Benzyl Ester+g ai/ha saflufenacil: r14 4.38+0, r15 8.75+0, r16 0+10, r17 0+20, r18 4.38+10, r19 8.75+10, r20 4.38+20, r21 8.75+20): 40%
- Visual Weed Control (%) - 20 DAA LEFCH Obs ([3]; 10 g ai/ha alone): 0%
- Visual Weed Control (%) - 20 DAA LEFCH Obs ([3]; 20 g ai/ha alone): 0%
- Visual Weed Control (%) - 21 DAA LEFCH Obs ([3]; 40 g ai/ha alone): 5%
- Visual Weed Control (%) - 21 DAA ISCRU Obs [4]: 0%
- Visual Weed Control (%) - 20 DAA ECHCG Obs ([5]; 10 g ai/ha alone): 0%
- Visual Weed Control (%) - 20 DAA ECHCG Obs ([5]; 20 g ai/ha alone): 10%
- Visual Weed Control (%) - 20 DAA ECHOR Obs ([6]; 10 g ai/ha alone): 0%
- Visual Weed Control (%) - 20 DAA ECHOR Obs ([6]; 20 g ai/ha alone): 0%
- Visual Weed Control (%) - 20 DAA LEFCH Obs ([7]; g ae/ha Compound A Acid+g ai/ha saflufenacil: r11 4.38+0, r12 8.75+0, r13 17.5+0, r14 0+5, r15 4.38+5, r16 8.75+5, r17 17.5+5): 0%
- Visual Weed Control (%) - 20 DAA LEFCH Obs ([7]; g ae/ha Compound A Benzyl Ester+g ai/ha saflufenacil: r26 8.75+0, r27 17.5+0, r28 0+5, r29 0+10, r30 8.75+5, r31 17.5+5, r32 8.75+10, r33 17.5+10): 0%

Compound: COc1c(Cl)ccc(-c2nc(C(=O)O)c(Cl)c(N)c2F)c1F [Compound A Acid, 4-amino-3-chloro-5-fluoro-6-(4-chloro-2-fluoro-3-methoxy-phenyl)pyridine-2-carboxylic acid]
- Visual Weed Control (%) - 20 DAA CYPIR Obs [8]: 30%
- Visual Weed Control (%) - 20 DAA IPOHE Obs ([9]; first section, g ae/ha Compound A Acid+g ai/ha oxadiazon: r12 8.75+0, r13 0+31.25, r14 0+62.5, r15 0+125, r16 8.75+31.25, r17 8.75+62.5, r18 8.75+125): 10%
- Visual Weed Control (%) - 21 DAA IPOHE Obs ([9]; g ae/ha Compound A Acid+g ai/ha pyraclonil: r53 35+0, r54 0+270, r55 35+270): 45%
- Visual Weed Control (%) - 21 DAA SCPJU Obs ([10]; 8.75 g ae/ha alone): 40%
- Visual Weed Control (%) - 21 DAA SCPJU Obs ([10]; 17.5 g ae/ha alone): 60%
- Visual Weed Control (%) - 21 DAA SCPJU Obs ([10]; 35 g ae/ha alone): 95%
- Visual Weed Control (%) - 20 DAA CYPRO Obs ([1]; 8.75 g ae/ha alone): 0%
- Visual Weed Control (%) - 20 DAA CYPRO Obs ([1]; 17.5 g ae/ha alone): 20%
- Visual Weed Control (%) - 20 DAA CYPRO Obs ([1]; 35 g ae/ha alone): 80%
- Visual Weed Control (%) - 21 DAA CYPRO Obs ([1]; 35 g ae/ha alone): 70%
- Visual Weed Control (%) - 20 DAA ECHCO Obs ([2]; g ae/ha Compound A Acid+g ai/ha saflufenacil: r24 4.38+0, r25 0+5, r26 0+10, r27 0+20, r28 4.38+5, r29 4.38+10, r30 4.38+20): 40%
- Visual Weed Control (%) - 20 DAA LEFCH Obs ([3]; 17.5 g ae/ha alone): 0%
- Visual Weed Control (%) - 20 DAA LEFCH Obs ([3]; 35 g ae/ha alone): 30%
- Visual Weed Control (%) - 21 DAA LEFCH Obs ([3]; 35 g ae/ha alone): 5%
- Visual Weed Control (%) - 21 DAA LEFCH Obs ([3]; 70 g ae/ha alone): 23%
- Visual Weed Control (%) - 20 DAA BRAPP Obs [11]: 10%
- Visual Weed Control (%) - 21 DAA ECHCG Obs ([5]; 8.75 g ae/ha alone): 15%
- Visual Weed Control (%) - 20 DAA ECHCG Obs ([5]; 17.5 g ae/ha alone): 50%
- Visual Weed Control (%) - 21 DAA ECHCG Obs ([5]; 17.5 g ae/ha alone): 20%
- Visual Weed Control (%) - 20 DAA ECHCG Obs ([5]; 35 g ae/ha alone): 95%
- Visual Weed Control (%) - 21 DAA ECHCG Obs ([5]; 35 g ae/ha alone): 95%
- Visual Weed Control (%) - 21 DAA FIMMI Obs [12]: 0%
- Visual Weed Control (%) - 19 DAA ECHOR Obs ([6]; g ae/ha Compound A Acid+g ai/ha carfentrazone-ethyl: r28 42.4+0, r29 0+215, r30 42.4+215): 15%
- Visual Weed Control (%) - 19 DAA LEFCH Obs ([7]; g ae/ha Compound A Acid+g ai/ha carfentrazone-ethyl: r39 19.4+0, r40 0+28, r41 19.4+28): 5%
